# How the values were obtained:
# Type in all cases: functional
# [1] = test system: Mycobacterium tuberculosis; test: Antitubercular activity against isoniazid, streptomycin, ethionamide and ethambutol resistant Mycobacterium tuberculosis isolate 1 assessed as growth inhibition
# [2] = test system: Mycobacterium tuberculosis; test: Antitubercular activity against isoniazid and ethionamide resistant Mycobacterium tuberculosis isolate 5 assessed as growth inhibition
# [3] = test system: Mycobacterium tuberculosis; test: Antitubercular activity against isoniazid, streptomycin and ethionamide resistant Mycobacterium tuberculosis isolate 6 assessed as growth inhibition
# [4] = test system: Mycobacterium tuberculosis; test: Antitubercular activity against isoniazid and ethionamide resistant Mycobacterium tuberculosis isolate 2 assessed as growth inhibition
# [5] = test system: Mycobacterium tuberculosis; test: Antitubercular activity against isoniazid, streptomycin and rifampicin resistant Mycobacterium tuberculosis isolate 3 assessed as growth inhibition
# [6] = test system: Mycobacterium tuberculosis; test: Antitubercular activity against isoniazid, streptomycin, ethionamide, ethambutol and rifampicin resistant Mycobacterium tuberculosis isolate 7 assessed as growth inhibition
# [7] = test system: Mycobacterium tuberculosis; test: Antitubercular activity against isoniazid and rifampicin resistant Mycobacterium tuberculosis isolate 4 assessed as growth inhibition
# [8] = test system: Mycobacterium tuberculosis; test: Antitubercular activity against isoniazid, streptomycin, ethionamide, ethambutol, rifampicin and ofloxacin resistant Mycobacterium tuberculosis isolate 8 assessed as growth inhibition
smiles,measurement,setting,value
CCOC(=O)c1nc(C2CCCCC2)sc1-c1ccc(C#N)cc1,MIC,[1],8 µg/mL
same,MIC,[2],8 µg/mL
same,MIC,[3],8 µg/mL
same,MIC,[4],8 µg/mL
same,MIC,[5],16 µg/mL
same,MIC,[6],16 µg/mL
same,MIC,[7],4 µg/mL
same,MIC,[8],> 32 µg/mL

# Source: ChEMBL document CHEMBL4364263, “Synthesis and biological evaluation of 2,4,5-trisubstituted thiazoles as antituberculosis agents effective against drug-resistant tuberculosis” (Eur J Med Chem, 2019)
